Results reported in patent US8071810B2, “C5a receptor antagonists” (Jerini AG, priority 2005, dated 2011).
Read-outs that look alike come from different tables or passages of the source.

Biological target: T1, human C5a receptor (CD88) (Homo sapiens, UniProt P21730)
T1 construct: expressed in transfected cells; host or cells: rat basophilic leukemia (RBL) cells, stably transfected
T1 sequence (P21730 1-350): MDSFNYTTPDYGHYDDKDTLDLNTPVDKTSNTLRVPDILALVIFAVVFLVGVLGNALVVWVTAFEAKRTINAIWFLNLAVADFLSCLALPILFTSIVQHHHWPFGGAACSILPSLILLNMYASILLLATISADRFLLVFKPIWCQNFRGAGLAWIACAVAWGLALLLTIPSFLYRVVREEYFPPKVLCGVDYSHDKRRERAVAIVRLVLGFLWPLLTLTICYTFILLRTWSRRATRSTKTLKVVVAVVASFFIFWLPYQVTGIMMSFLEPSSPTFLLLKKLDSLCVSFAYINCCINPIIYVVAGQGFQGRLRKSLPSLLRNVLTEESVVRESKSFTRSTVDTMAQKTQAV
Experiment: C5a induced enzyme (glucosaminidase) release assay in RBL cells expressing the human C5a receptor (Example 28)
Format: cell-based
Conditions: RBL cells with human C5aR
Description: Basophile leukemia cells from rats (RBL), which express the human C5a receptor (CD88), are cultivated in DMEM with 10% fetal calf serum, 100 U/ml penicillin, 100 μg/ml streptomycin and 2 mM glutamin (all constituents are from Biochrome, Berlin) at 37° C. and with 10% CO2 until a confluent layer is obtained. All following details refer to a tissue culture flask with 75 cm^2 surface. The used up medium is removed. The cells are washed with 10 ml PBS (Dulbecco's PBS, Biochrome) and then covered with 3 ml cell dissociation solution (CDS, Sigma). The cells are incubated for 1 minute at room temperature. Then the CDS is removed and the cells are incubated for further 10-15 minutes at 37° C. to detach the cells completely from the flask. 20 μl solution of the compound to be testet are used in the assay. […] The dilution series are prepared in ⅓ or ½ steps. […] The cells are counted and centrifuged (200 g, 10 min). The cell pellet is taken up with pre-heated HAG-CM, and the cell density is adjusted to 2×10^6 Zellen/ml. The cells are incubated for 5 minutes at 37° C. 2.7 μl of a cytochalasin B solution (1000 μg/ml in DMSO, Sigma) are added per ml cell suspension. The Zellen are incubated for another 3 min at 37° C. Then, 75 μl of the cell suspension are added to the 20 μl solution containing the compounds to be tested. […] The cells are again incubated for 10 minutes at 37° C. […] After this the plates are put on ice and centrifuged for 3 minutes at 1200×g and 4° C. […] The plate is incubated for 1 hour at 37° C. […] The IC50 value is determined by solving the four parameter equation y=((A−D)/(1+(x/C)^B))+D.

[1] = inhibition of C5a induced enzyme release, read-out: Activity-range (antagonistic activity, IC50 enzyme release)
[2] = read-out: IC50 for the inhibition of C5a induced enzyme release

| SMILES | IC50 [1] | IC50 [2] |
| --- | --- | --- |
| CCc1c(N)cc(Cl)c(CC)c1NC(=O)N(Cc1ccc(C)cc1)c1ccc(C(C)C)cc1 [compound 34, 3-(3-amino-5-chloro-2,6-diethyl-phenyl)-1-(4-isopropyl-phenyl)-1-(4-methyl-benzyl)-urea] | 60 to 200 nM | – |
| CCc1c(Cl)cc(NCC(N)=O)c(CC)c1NC(=O)N(Cc1ccc(OC)cc1)c1ccc(C(C)C)cc1 [compound 46, 2-{5-chloro-2,4-diethyl-3-[3-(4-isopropyl-phenyl)-3-(4-methoxy-benzyl)-ureido]-phenylamino}-acetamide] | 200 to 5000 nM | – |
| CCc1ccc(N)c(CC)c1NC(=O)N(c1ccc(C(C)C)cc1)[C@H](C)c1ccc(OC)cc1 [compound 70, (R)-3-(3-amino-2,6-diethyl-phenyl)-1-(4-isopropyl-phenyl)-1-[1-(4-methoxy-phenyl)-ethyl]-urea] | 200 to 5000 nM | – |
| CCc1c(N)cc(Cl)c(CC)c1NC(=O)N(Cc1ccc(C)nc1)c1ccc(CC(F)(F)F)cc1 [compound 126, 3-(3-amino-5-chloro-2,6-diethyl-phenyl)-1-(6-methyl-pyridin-3-ylmethyl)-1-[4-(2,2,2-trifluoro-ethyl)-phenyl]-urea] | 60 to 200 nM | – |
| CCc1c(N)cc(Cl)c(CC)c1NC(=O)N(c1ccc(SC)cc1)[C@@H](C)c1ccc(Cl)cc1 [compound 83, (S)-3-(3-amino-5-chloro-2,6-diethyl-phenyl)-1-[1-(4-chloro-phenyl)-ethyl]-1-(4-methylsulfanyl-phenyl)-urea] | 60 to 200 nM | – |
| CCc1ccc(N(Cc2ccc(-n3cccn3)cc2)C(=O)Nc2c(CC)c(N)cc(Cl)c2CC)cc1 [compound 110, 3-(3-amino-5-chloro-2,6-diethyl-phenyl)-1-(4-ethyl-phenyl)-1-(4-pyrazol-1-yl-benzyl)-urea] | 200 to 5000 nM | – |
| CCc1c(N)cc(Cl)c(CC)c1NC(=O)N(c1ccc(C(C)C)cc1)[C@H](C)c1ccc(C)cc1 [compound 57, (R)-3-(3-Amino-5-chloro-2,6-diethyl-phenyl)-1-(4-isopropyl-phenyl)-1-(1-p-tolyl-ethyl)-urea] | 200 to 5000 nM | – |
| CCc1c(N)cc(Cl)c(CC)c1NC(=O)N(c1ccc(NC)cc1)[C@@H](C)c1ccc(Cl)cc1 | – | 3 nM |
| CCc1ccc(N)c(CC)c1NC(=O)N(Cc1ccc(C(F)(F)F)cc1)c1ccc(C(C)C)cc1 [compound 50, 3-(3-amino-2,6-diethyl-phenyl)-1-(4-isopropyl-phenyl)-1-(4-trifluoromethyl-benzyl)-urea] | 200 to 5000 nM | – |
| COc1ccc(CN(C(=O)Nc2c(C(C)C)cccc2C(C)C)c2ccc(C(C)C)cc2)cc1 [compound 134, 3-(2,6-diisopropyl-phenyl)-1-(4-isopropyl-phenyl)-1-(4-methoxy-benzyl)-urea] | 200 to 5000 nM | – |
| CCc1c(Cl)cc(NCC(=O)OC(C)(C)C)c(CC)c1NC(=O)N(Cc1ccc(OC)cc1)c1ccc(C(C)C)cc1 [compound 45, {5-chloro-2,4-diethyl-3-[3-(4-isopropyl-phenyl)-3-(4-methoxy-benzyl)-ureido]-phenylamino} acetic acid tert-butyl ester] | 60 to 200 nM | – |
| CCc1ccc(N(Cc2ccc(OC)cc2)C(=O)Nc2c(CC)c(N)cc(Cl)c2CC)cc1 [compound 32, 3-(3-amino-5-chloro-2,6-diethyl-phenyl)-1-(4-ethyl-phenyl)-1-(4-methoxy-benzyl)-urea] | 200 to 5000 nM | – |
| CCc1c(N)cc(Cl)c(CC)c1NC(=O)N(c1ccc(OC)cc1CO)[C@@H](C)c1ccc(Cl)cc1 [compound 109, (S)-3-(3-amino-5-chloro-2,6-diethyl-phenyl)-1-[1-(4-chloro-phenyl)-ethyl]-1-(2-hydroxymethyl-4-methoxy-phenyl)-urea] | 200 to 5000 nM | – |
| CCc1c(N)cc(Cl)c(CC)c1NC(=O)N(Cc1ccc(OC)cc1F)c1ccc(C(C)C)cc1 [compound 58, 3-(3-amino-5-chloro-2,6-diethyl-phenyl)-1-(2-fluoro-4-methoxy-benzyl)-1-(4-isopropyl-phenyl)-urea] | 200 to 5000 nM | – |
| CCc1c(N)cc(Cl)c(CC)c1NC(=O)N(Cc1ccc(Cl)nc1)c1ccc(C(C)C)cc1 | – | 62 nM |
